According to paper PMC8119294 (Biochemistry, 2020):

How the values were obtained:
DOP = conditions: read-out: Ki at DOP; CHO cells; cited from earlier work
mice = conditions: radiant heat tail flick assay; cited from earlier work
KOP = conditions: read-out: Ki at KOP; CHO cells; cited from earlier work
MOP = conditions: read-out: Ki at MOP; CHO cells; cited from earlier work
hMOP H321F mutant = hMOP H321F mutant (Homo sapiens, UniProt P35372, H321F); assay: Gαi-mediated cAMP inhibition assay, hMOP H321F mutant; type: cell-based; conditions: for potency reduction at His321F mutant compared to wild-type receptor: EC50 mutant vs wild type; for decrease in efficacy at His321F mutant: Emax mutant vs wild type; for Emax: normalized to Emax of DAMGO
hMOP H321F mutant, sequence (P35372 whole entry H321F): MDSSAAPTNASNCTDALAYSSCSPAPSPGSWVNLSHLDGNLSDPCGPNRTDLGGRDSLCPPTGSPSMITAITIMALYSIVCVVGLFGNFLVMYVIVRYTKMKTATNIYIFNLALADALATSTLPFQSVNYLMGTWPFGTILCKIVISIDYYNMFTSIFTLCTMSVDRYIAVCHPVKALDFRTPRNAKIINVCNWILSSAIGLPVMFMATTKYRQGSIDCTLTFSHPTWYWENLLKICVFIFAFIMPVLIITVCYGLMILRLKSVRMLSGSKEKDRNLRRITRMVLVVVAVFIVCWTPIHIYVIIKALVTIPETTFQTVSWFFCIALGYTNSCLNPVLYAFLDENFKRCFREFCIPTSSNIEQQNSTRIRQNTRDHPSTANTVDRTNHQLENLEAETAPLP

hMOP Asn129K mutant = hMOP Asn129K mutant (Homo sapiens, UniProt P35372, N129K); assay: Gαi-mediated cAMP inhibition assay, hMOP Asn129K mutant; type: cell-based; conditions: for Emax: normalized to Emax of DAMGO
hMOP Asn129K mutant, sequence (P35372 whole entry N129K): as the sequence (P35372 whole entry H321F) above, with N129K, F321H counted along it

[1] = biological target: human opioid receptor OPRM_HUMAN (hMOP), wild type (Homo sapiens, UniProt P35372); type: cell-based; conditions: for Emax: WT hMOP, normalized to Emax of DAMGO
human opioid receptor OPRM_HUMAN (hMOP), wild type, sequence (P35372 whole entry): as the sequence (P35372 whole entry H321F) above, with F321H counted along it

human DOP = conditions: HEK 293 cells, very low potency; cited from earlier work
human MOP = conditions: HEK 293 cells; cited from earlier work
human KOP = conditions: HEK 293 cells; cited from earlier work
rats = conditions: hot plate assay; cited from earlier work
opioid receptors = conditions: read-out: Ki for opioid receptors; cited from earlier work
α-adrenergic receptors = conditions: read-out: Ki for α-adrenergic receptors; cited from earlier work
[2] = HEK 293T cells, hMOP H321F mutant, cAMP assay, Gi
[3] = HEK 293T cells, hMOP Asn129K mutant, cAMP assay, Gi
[4] = HEK 293T cells, wild type (WT) hMOP, cAMP assay, Gi

Compound: CC[C@@H]1CN2CC[C@@]3(O)C(=Nc4cccc(OC)c43)[C@@H]2C[C@@H]1/C(=C\OC)C(=O)OC [7OH, 7-hydroxymitragynine]
- Ki (DOP): 91 ± 8 nM
- analgesic effect compared to morphine (mice): significantly more potent than morphine
- Ki (KOP): 132 ± 7 nM
- Ki (MOP): 37 ± 4 nM
- potency reduction at His321F mutant compared to wild-type receptor (hMOP H321F mutant; cAMP assay): 2.5 fold
- decrease in efficacy at His321F mutant (hMOP H321F mutant; cAMP assay): > 25%
- Emax (hMOP H321F mutant; hMOP H321F mutant): 60 ± 9%
- potency reduction at Asn129K mutant compared to wild-type receptor (hMOP Asn129K mutant; EC50 mutant vs wild type, cAMP assay): 5 fold
- Emax (hMOP Asn129K mutant; hMOP Asn129K mutant): 92 ± 3.2%
- Emax [1]: 89±3.8%
- functional activity at human DOP (human DOP): competitive antagonists
- functional activity at human MOP (human MOP): partial agonists
- functional activity at human KOP (human KOP): competitive antagonists
- analgesic effect compared to morphine (rats): significantly more potent than morphine

Compound: CC[C@@H]1CN2CC[C@]3(Nc4cccc(OC)c4C3=O)[C@@H]2C[C@@H]1/C(=C\OC)C(=O)OC [MP, mitragynine pseudoindoxyl]
- Ki (DOP): 3 ± 1.3 nM
- potency relative to morphine (mice): 1.5 fold
- Ki (KOP): 24 ± 0.9 nM
- Ki (MOP): 0.8 ± 0.2 nM
- potency reduction at His321F mutant compared to wild-type receptor (hMOP H321F mutant; cAMP assay): 32 fold
- decrease in efficacy at His321F mutant (hMOP H321F mutant; cAMP assay): > 25%
- EC50 (hMOP H321F mutant; [2]): 16.9 nM
- pEC50 ± SEM (hMOP H321F mutant; [2]): 7.77 ± 0.27
- Emax (hMOP H321F mutant; hMOP H321F mutant): 58.9 ± 6.7%
- EC50 (hMOP Asn129K mutant; [3]): 0.9 nM
- pEC50 ± SEM (hMOP Asn129K mutant; [3]): 9.04 ± 0.084
- Emax (hMOP Asn129K mutant; hMOP Asn129K mutant): 88 ± 2.97%
- EC50 [1, 4]: 0.55 nM
- pEC50 ± SEM [1, 4]: 9.28±0.11
- Emax [1]: 81±3.6%

Compound: mitragynine [MG]
- Ki (opioid receptors): 161 to 198 nM
- analgesic effect compared to morphine (mice): significantly lower than morphine
- Ki (MOP): 230 ± 47 nM
- Ki (α-adrenergic receptors): 1.34 to 9.29 µM
- functional activity at human DOP (human DOP): competitive antagonists
- functional activity at human MOP (human MOP): partial agonists
- functional activity at human KOP (human KOP): competitive antagonists
- analgesic effect compared to morphine (rats): significantly lower than morphine
